# Where a name gives a salt, the structure may show the parent alone.
# What was measured:
# [1] = target: human norepinephrine transporter (Homo sapiens, UniProt P23975); assay: Human norepinephrine (hNET) receptor binding, [125I]-RTI-55; conditions: membranes of HEK-293 cells transfected with human norepinephrine transporter cDNA; 50 pM [125I]-RTI-55; IC50 converted by Cheng-Prusoff
# Experimental: Cell pastes of human embryonic kidney 293 (HEK-293) cells transfected with a human norepinephrine transporter cDNA were prepared. The cell pastes were resuspended in 400 to 700 mL of Krebs-N-2-hydroxyethylpiperazine-N′-2-ethanesulfonic acid (HEPES) assay buffer (25 mM HEPES, 122 mM NaCl, 3 mM KCl, 1.2 mM MgSO4, 1.3 mM CaCl2, and 11 mM glucose, pH 7.4) with a Polytron homogenizer at setting 7 for 30 seconds. Aliquots of membranes (5 mg/mL protein) were stored in liquid nitrogen until used.
# The binding assay was set up in Beckman deep-well polypropylene plates with a total volume of 250 μL containing: test compound (concentration of 10^−5M to 10^−12M), cell membranes, and 50 pM [^125I]-RTI-55 ([^125I]-3 beta-(4-iodophenyl)tropan-2 beta-carboxylic acid methyl ester) (Perkin Elmer, NEX-272; specific activity 2200 Ci/mmol). The reaction was incubated by gentle agitation for 90 minutes at room temperature and was terminated by filtration through Whatman GF/C filter plates using a Brandel 96-well plate harvester. Scintillation fluid (100 μL) was added to each well, and bound [^125I]-RTI-55 was determined using a Wallac Trilux Beta Plate Counter. Test compounds were run in duplicate, and specific binding was defined as the difference between binding in the presence and absence of 10 μM desipramine.
# Excel and GraphPad Prism software were used for data calculation and analysis. IC50 values were converted to Ki values using the Cheng-Prusoff equation. The Ki values (nM) for the hNET are reported below in Table 13.
# [2] = target: human serotonin transporter (Homo sapiens, UniProt P31645); assay: Human serotonin (hSERT) receptor binding, [125I]-RTI-55; conditions: membranes of HEK-293 cells transfected with human serotonin transporter cDNA, IC50 converted by Cheng-Prusoff
# Sequence of human serotonin transporter (P31645 whole entry): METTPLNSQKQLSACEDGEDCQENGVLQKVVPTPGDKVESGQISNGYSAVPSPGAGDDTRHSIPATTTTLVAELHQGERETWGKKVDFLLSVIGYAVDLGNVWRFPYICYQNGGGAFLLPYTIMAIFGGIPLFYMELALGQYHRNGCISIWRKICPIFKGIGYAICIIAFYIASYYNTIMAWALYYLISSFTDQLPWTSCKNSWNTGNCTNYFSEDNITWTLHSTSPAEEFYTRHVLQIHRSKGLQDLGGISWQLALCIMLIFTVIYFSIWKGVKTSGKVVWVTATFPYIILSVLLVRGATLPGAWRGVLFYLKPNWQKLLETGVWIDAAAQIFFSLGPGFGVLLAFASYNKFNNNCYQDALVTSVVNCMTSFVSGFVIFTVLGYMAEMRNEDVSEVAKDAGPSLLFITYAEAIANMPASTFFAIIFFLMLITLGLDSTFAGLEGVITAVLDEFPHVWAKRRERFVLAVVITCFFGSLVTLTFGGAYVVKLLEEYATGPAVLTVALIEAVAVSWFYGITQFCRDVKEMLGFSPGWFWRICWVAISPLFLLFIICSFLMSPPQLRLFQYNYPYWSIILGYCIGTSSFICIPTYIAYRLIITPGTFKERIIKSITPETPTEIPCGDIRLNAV
# Experimental: Cell pastes of HEK-293 cells transfected with a human serotonin transporter cDNA were prepared. The cell pastes were resuspended in 400 to 700 ml of Krebs-HEPES assay buffer (25 mM HEPES, 122 mM NaCl, 3 mM KCl, 1.2 mM MgSO4, 1.3 mM CaCl2, and 11 mM glucose, pH 7.4) with a Polytron homogenizer at Setting 7 for 30 seconds. Aliquots of membranes (˜2.5 mg/mL protein) were stored in liquid nitrogen until used.
# Assays were set up in FlashPlates pre-coated with 0.1% polyethyleneimine (PEI) in a total volume of 250 μL containing: test compound (concentration 10^−5M to 10^−12M), cell membranes, and […] [^125I]-RTI-55 (Perkin Elmer, NEX-272; specific activity 2200 Ci/mmol). The reaction was incubated and gently agitated for 90 minutes at room temperature, and terminated by removal of assay volume. Plates were covered, and bound [^125I]-RTI-55 was determined using a Wallac Trilux Beta Plate Counter. Test compounds were run in duplicate, and specific binding was defined as the difference between binding in the presence and absence of 10 μM citalopram.
# Excel and GraphPad Prism software were used for data calculation and analysis. IC50 values were converted to Ki values using the Cheng-Prusoff equation.
# Sequence of human norepinephrine transporter (P23975 whole entry): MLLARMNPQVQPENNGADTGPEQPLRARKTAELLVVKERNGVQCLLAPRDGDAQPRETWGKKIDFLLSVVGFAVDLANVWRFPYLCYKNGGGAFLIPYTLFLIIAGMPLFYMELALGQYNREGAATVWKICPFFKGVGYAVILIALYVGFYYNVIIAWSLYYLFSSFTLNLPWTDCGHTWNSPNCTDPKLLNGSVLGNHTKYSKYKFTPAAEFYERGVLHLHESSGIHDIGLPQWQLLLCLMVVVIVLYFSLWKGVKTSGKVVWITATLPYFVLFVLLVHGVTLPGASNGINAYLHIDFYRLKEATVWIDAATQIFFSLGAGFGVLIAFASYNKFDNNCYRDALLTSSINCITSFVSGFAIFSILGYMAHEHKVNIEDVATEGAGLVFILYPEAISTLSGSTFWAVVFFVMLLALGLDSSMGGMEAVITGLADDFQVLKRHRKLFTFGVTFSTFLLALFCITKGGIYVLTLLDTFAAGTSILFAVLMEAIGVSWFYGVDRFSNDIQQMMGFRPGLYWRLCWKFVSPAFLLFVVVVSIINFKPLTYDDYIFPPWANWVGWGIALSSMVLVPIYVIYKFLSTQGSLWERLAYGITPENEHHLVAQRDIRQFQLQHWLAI
Ki [1] [nM],Ki [2] [nM],SMILES
46,120,"COc1ccc(OC[C@H]2CCCNC2)c(Oc2ccc(Cl)cc2OC)c1 [Example 32, (S)-3-[2-(4-chloro-2-methoxy-phenoxy)-4-methoxy-phenoxymethyl]-piperidine fumaric acid]"
32,36,"Fc1cc(Cl)ccc1Oc1cc(Cl)ccc1OC[C@H]1CCCNC1 [Example 33, (S)-3-[4-chloro-2-(4-chloro-2-fluoro-phenoxy)-phenoxymethyl]-piperidine fumaric acid]"
16,21,"COc1cc(Cl)ccc1Oc1cc(Cl)ccc1OC[C@H]1CCCNC1 [Example 34, (S)-3-[4-chloro-2-(4-chloro-2-methoxy-phenoxy)-phenoxymethyl]-piperidine fumaric acid]"
250,35,"COc1cc(Cl)ccc1Oc1cc(C(F)(F)F)ccc1OC[C@H]1CCCNC1 [Example 35, (S)-3-[2-(4-chloro-2-methoxy-phenoxy)-4-trifluoromethyl-phenoxymethyl]-piperidine fumaric acid]"
830,110,"COc1cc(Cl)ccc1Oc1cc(F)ccc1OC[C@H]1CCCNC1 [Example 36, (S)-3-[2-(4-chloro-2-methoxy-phenoxy)-4-fluoro-phenoxymethyl]-piperidine fumaric acid]"
77,22,"COc1cc(F)ccc1Oc1cc(C(F)(F)F)ccc1OC[C@H]1CCCNC1 [Example 37, (S)-3-[2-(4-fluoro-2-methoxy-phenoxy)-4-trifluoromethyl-phenoxymethyl]-piperidine fumaric acid]"
3.6,1900,"Fc1ccc(Oc2c(F)cccc2OC[C@H]2CCCNC2)c(Cl)c1 [Example 38, (S)-3-[2-(2-chloro-4-fluoro-phenoxy)-3-fluoro-phenoxymethyl]-piperidine fumaric acid]"
802,110,"Fc1ccc(Oc2cc(F)ccc2OC[C@H]2CCCNC2)c(Cl)c1 [Example 39, (S)-3-[2-(2-chloro-4-fluoro-phenoxy)-4-fluoro-phenoxymethyl]-piperidine fumaric acid]"
7.5,14,"COc1cccc(F)c1Oc1cc(Cl)ccc1OC[C@H]1CCCNC1 [Example 40, (S)-3-[4-chloro-2-(2-fluoro-6-methoxy-phenoxy)-phenoxymethyl]-piperidine fumaric acid]"
3.8,210,"Cc1ccc(OC[C@H]2CCCNC2)c(Oc2ccc(F)cc2)n1 [Example 41, (S)-2-(4-fluoro-phenoxy)-6-methyl-3-(piperidin-3-ylmethoxy)-pyridine fumaric acid]"
3.6,110,"Cc1ccc(OC[C@H]2CCCNC2)c(Oc2c(F)cccc2F)n1 [Example 42, (S)-2-(2,6-difluoro-phenoxy)-6-methyl-3-(piperidin-3-ylmethoxy)-pyridine hydrochloride]"
10.4,> 9200,"Cc1ccc(OC[C@H]2CCCNC2)c(Oc2c(Cl)cccc2Cl)n1 [Example 47, (S)-2-(2,6-dichloro-phenoxy)-6-methyl-3-(piperidin-3-ylmethoxy)-pyridine hydrochloride]"
61,> 9200,"Cc1ccc(OC[C@H]2CCCNC2)c(Oc2c(Cl)cc(F)cc2Cl)n1 [Example 48, (S)-2-(2,6-dichloro-4-fluoro-phenoxy)-6-methyl-3-(piperidin-3-ylmethoxy)-pyridine hydrochloride]"
6.1,25,"Cc1ccc(OC[C@H]2CCCNC2)c(Oc2c(F)ccc(F)c2F)n1 [Example 49, (S)-6-methyl-3-(piperidin-3-ylmethoxy)-2-(2,3,6-trifluoro-phenoxy)-pyridine hydrochloride]"
5.5,60.3,"Cc1ccc(OC[C@H]2CCCNC2)c(Oc2c(F)ccc(Cl)c2F)n1 [Example 50, (S)-2-(3-chloro-2,6-difluoro-phenoxy)-6-methyl-3-(piperidin-3-ylmethoxy)-pyridine hydrochloride]"
27,7300,"COc1ccc(Oc2ncccc2OC[C@H]2CCCNC2)cc1 [Example 51, (S)-2-(4-methoxy-phenoxy)-3-(piperidin-3-ylmethoxy)-pyridine fumaric acid]"
4,5200,"Cc1ccc(Oc2ncccc2OC[C@H]2CCCNC2)cc1 [Example 52, (S)-2-(4-methyl-phenoxy)-3-(piperidin-3-ylmethoxy)-pyridine fumaric acid]"
3,7050,"Fc1ccc(Oc2ncccc2OC[C@H]2CCCNC2)cc1 [Example 53, (S)-2-(4-fluoro-phenoxy)-3-(piperidin-3-ylmethoxy)-pyridine fumaric acid]"
3,2700,"Fc1ccc(Oc2ncccc2OC[C@H]2CCCNC2)c(F)c1 [Example 54, (S)-2-(2,4-difluoro-phenoxy)-3-(piperidin-3-ylmethoxy)-pyridine fumaric acid]"
17,> 10000,"Clc1ccc(Oc2ncccc2OC[C@H]2CCCNC2)cc1 [Example 55, (S)-2-(4-chloro-phenoxy)-3-(piperidin-3-ylmethoxy)-pyridine fumaric acid]"
58,> 10000,"N#Cc1ccc(Oc2ncccc2OC[C@H]2CCCNC2)cc1 [Example 57, (S)-4-[3-(piperidin-3-ylmethoxy)-pyridin-2-yloxy]-benzonitrile fumaric acid]"
1200,3990,"N#Cc1ccc(Oc2ncccc2OC[C@H]2CCCNC2)cc1C#N [Example 58, (S)-4-[3-(piperidin-3-ylmethoxy)-pyridin-2-yloxy]-phthalonitrile fumaric acid]"
140,> 10000,"N#Cc1ccc(Oc2ncccc2OC[C@H]2CCCNC2)cc1F [Example 61, (S)-2-fluoro-4-[3-(piperidin-3-ylmethoxy)-pyridin-2-yloxy]-benzonitrile fumaric acid]"
68,> 10000,"COc1cc(C#N)ccc1Oc1ncccc1OC[C@H]1CCCNC1 [Example 62, (S)-3-methoxy-4-[3-(piperidin-3-ylmethoxy)-pyridin-2-yloxy]-benzonitrile fumaric acid]"
17,860,"Clc1ccc(Oc2ncccc2OC[C@H]2CCCNC2)cc1Cl [Example 64, (S)-2-(3,4-dichloro-phenoxy)-3-(piperidin-3-ylmethoxy)-pyridine fumaric acid]"
108,> 10000,"CCOc1ncccc1OC[C@H]1CCCNC1 [Example 79, (S)-2-ethoxy-3-(piperidin-3-ylmethoxy)-pyridine fumaric acid]"
102,> 10000,"CC(C)Oc1ncccc1OC[C@H]1CCCNC1 [Example 80, (S)-2-isopropoxy-3-(piperidin-3-ylmethoxy)-pyridine fumaric acid]"
84,6130,"c1cnc(OC2CCCCC2)c(OC[C@H]2CCCNC2)c1 [Example 81, (S)-2-cyclohexyloxy-3-(piperidin-3-ylmethoxy)-pyridine fumaric acid]"
3,2030,"CC[C@H](Oc1cccnc1Oc1ccccc1)[C@H]1CCCNC1 [Example 84, (S,S)-2-phenoxy-3-(1-piperidin-3-yl-propoxy)-pyridine fumaric acid]"
